Reference: patent US12616711B2, “Therapeutic dendrimer” (Starpharma Pty Ltd, priority 2019, dated 2026)

Legend:
[1] = system: CAPAN-1 tumour xenografts; assay: CAPAN-1 mouse xenograft, alone or with Abraxane or DEP-DTX (Examples 13a, 13b); assay type: in vivo; conditions: day 29; i.v.; Gemcitabine 120, Abraxane 40, 3 at 6.5, 6 at 5 (day 1) then 4, DEP-DTX 24 (10 in combination) mg/kg
Description: Mice were inoculated and tumours sized as described above. On day nineteen after implantation, mice with similar sized tumours (mean tumour volume 100 mm^3) were randomised into 7 groups of 10 animals. […] Abraxane® was dissolved in saline solution immediately prior to dosing.
Abraxane®, gemcitabine and dendrimers were administered at days 1, 10, and 17 via tail vein i.v. injection, at 0.1 ml/10 g body weight.
In an extension of Example 13a, two additional groups of mice were prepared and dosed to assess the anti-tumour efficacy properties of a taxane-dendrimer combined with a nucleoside analogue-dendrimer (e.g. 6). Mice were inoculated and tumours sized as described above.
Dendrimers were administered weekly via tail vein i.v. injection, at 0.1 ml/10 g body weight for 3 weeks.
All statistical analyses were performed using GraphPad Prism 8.1.

[2] = system: MDA-MB-231 cells; assay: alamarBlue viability assay, GI50; assay type: cell-based; conditions: 72 h, given in μM Gemcitabine
Description: (§1) A study was carried out to determine the ability of example dendrimers to inhibit growth of cancer cell lines using an alamarBlue viability assay (Thermo Fisher, DAL1025).
(§2) The cytotoxicity of compounds toward MDA-MB-231, A549, H460, BxPC3 and CAPAN-1 cells were evaluated for viability. Cells were seeded at a density of 1.2-5×10^3 cells, dependent on cell growth rate, in 96 well plates and incubated overnight. Cells were then treated with serial dilutions of test compositions for 72 h (MDA-MB-231, A549 and H460 lines) or 144 h (BxPC3 and CAPAN-1 lines). For cell viability analysis, 10% media volume of alamar Blue was added during the final 6-8 h of incubation. Reduction of alamarBlue in living cells yields a red fluorescent metabolite that can be read on a plate reader (560 nm excitation/610 nm emission.). Cell viability and subsequent GI50 values were was determined from the blank corrected dose-response curves, with 4-parameter nonlinear curve fit, in GraphPad Prism.

[3] = system: BxPC3 cells; assay: alamarBlue viability assay, GI50; assay type: cell-based; conditions: BxPC-3, 144 h, given in μM Gemcitabine
Description: as §1, §2

[4] = system: H460 cells; assay: alamarBlue viability assay, GI50; assay type: cell-based; conditions: given in μM Gemcitabine
Description: as §1, §2

[5] = system: CAPAN-1 tumour xenografts; assay: CAPAN-1 mouse xenograft pancreatic cancer model, efficacy vs gemcitabine (Example 11); assay type: in vivo; conditions: for Tumour Growth inhibition (%) v vehicle: day 29, Gemcitabine 120, 1 at 2, 4 at 5, 2 at 5, 5 at 3 mg/kg; for Tumour Growth inhibition (%) v vehicle / effect on CAPAN-1 tumours over the dosing study (FIG. 4): i.v. twice weekly for 3 weeks; for survival compared to Gemcitabine (Kaplan-Meier): P<0.0001 Mantel Cox, Gemcitabine 120 mg/kg; for effect on CAPAN-1 tumours over the dosing study (FIG. 4): 4 at 5, 2 at 5, 5 at 3 mg/kg
Description: A CAPAN-1 (human pancreatic adenocarcinoma cell line) mouse xenograft pancreatic cancer model study was carried out to assess the anti-tumour efficacy properties of example dendrimers compared to gemcitabine.
Compounds 1, 4, 2 and 5 were prepared by dissolving in sterile saline solution immediately prior to dosing and. Gemcitabine ((DBL™ Gemcitabine injection, Hospira Pty Ltd.) was further diluted in saline solution prior to dosing.
Female NOD-SCID Interleukin-2 receptor gamma chain null mice (aged 9 weeks) were inoculated subcutaneously on the flank with 5×10^6 CAPAN-1 cells in PBS:Matrigel (1:1). Mice were weighed and tumours measured twice weekly using electronic callipers. Tumour volume (mm^3) was calculated as length (mm)/2×width (mm)^2. On day seventeen after implantation, mice with similar sized tumours (mean tumour volume 100 mm^3) were randomised into 6 groups of 10 animals.
Compounds were administered via tail vein i.v. injection, twice weekly at […] for 3 weeks. Groups were dosed as follows: • 1. Saline—vehicle • 2. Gemcitabine (120 mg/kg, i.v.) • 3. 1 (2 mg/kg, i.v.) • 4. 4 (5 mg/kg, i.v.) • 5. 2 (5 mg/kg, i.v.) • 6. 5 (3 mg/kg, i.v.)
Tumour growth inhibition was analysed at day 29 (where all vehicle animals remained in the study) using one-way ANOVA followed by Dunnett's multiple comparison test. Tumour growth curves of gemcitabine and DEP-gemcitabine were compared over 47 days (when all treatment group animals remained in the study for tumour-related endpoints) using a mixed-effects model followed by Tukey's multiple comparison test. […] All statistical analysis was performed using GraphPad Prism 8.1.

[6] = system: A549 cells; assay: alamarBlue viability assay, GI50; assay type: cell-based, human; conditions: 72 h, given in μM Gemcitabine
Description: as §1, §2

[7] = system: CAPAN-1 cells; assay: alamarBlue viability assay, GI50; assay type: cell-based, human; conditions: 144 h, given in μM Gemcitabine
Description: as §1, §2

[8] = system: CAPAN-1 tumour xenografts; assay: CAPAN-1 mouse xenograft, dosing regimen study (Example 12); assay type: in vivo; conditions: 5 mg/kg i.v. weekly for 3 weeks compared to 2 mg/kg i.v. biweekly for 3 weeks
Description: A CAPAN-1 (human pancreatic adenocarcinoma cell line) mouse xenograft pancreatic cancer model was established to assess the effects of weekly compared to biweekly administration of an example dendrimer.
Compound 1 was prepared as described above. Mice were inoculated and tumours sized as described above. On day seventeen after implantation, mice with similar sized tumours (mean tumour volume 140 mm^3) were randomised into 2 groups of 5 animals: • 1. 1 (5 mg/kg, i.v.) weekly for 3 weeks; and • 2. 1 (2 mg/kg, i.v.) biweekly for 3 weeks.

[9] = Plasma release study; assay type: in vitro ADME; conditions: 37° C.
Description: The plasma was placed in a CO2 incubator at 3% CO2 at 42% relative humidity to reach a pH of 7.4.
Gemcitabine HCl (28.5 mg) was dissolved in Milli Q water and the resulting stock solution transferred to a 5 mL volumetric flask and diluted to provide working standard solutions.
The plasma release study was conducted by adding 1 mL of plasma (centrifuged and filtered) to 0.2 mL of dendrimer solution (approximately 2 mg/mL gemcitabine equivalent in miliQ water) for example dendrimers and a comparator. The mixtures were vortexed (30 sec) then incubated at 37° C. 5% CO2. At various timepoints aliquots (0.1 mL) were removed and added to ACN (0.2 mL). The resulting mixtures were vortexed (30 s), centrifuged (10 min, 4° C.), filtered and analysed by HPLC (C8 Xbridge, 3×100 mm, […], 0.4 mL/min., gradient: 5% ACN/H2O) (0-1 min), 5-80% ACN (1-7 min), 80% ACN (7-12 min), 80-5% ACN (12-13 min), 5% ACN (13-15 min), 100 mM ammonium formate buffer, column temperature 50° C., sample tray 4° C., 260 nm.

Row | Compound | Tumour Growth inhibition (%) v vehicle at day 29 [1] [%] | Tumour Growth inhibition (%) v vehicle [5] [%] | GI50 [3] [µM] | GI50 ([4]; 72 h) [µM] | GI50 [6] [µM] | GI50 [7] [µM] | GI50 [2] [µM] | survival compared to Gemcitabine (Kaplan-Meier) [5] | effect on CAPAN-1 tumours over the dosing study (FIG. 4) [5] | also measured
1 | Nc1ccn([C@@H]2O[C@H](CO)[C@@H](O)C2(F)F)c(=O)n1 [Gemcitabine, gemcitabine, reference compound] | 59 | 84 |  |  |  |  |  |  |  | GI50 ([2]; Homo sapiens): 0.004 µM; GI50 ([3]; Homo sapiens): 0.009 µM; GI50 ([4]; Homo sapiens, NCI-H460, 72 h): 0.042 µM; GI50 ([6]; Homo sapiens): 0.011 µM; GI50 ([7]; Homo sapiens): 0.009 µM
2 | BHALys[Lys]32[α-TDA-DTX]32[ε-PolyPEG2000]32 [DEP-DTX, reference compound] | 108 |  |  |  |  |  |  |  |  | 
3 | [BHA Lys][Lys]30[Lys]32 [Compound 1, [BHA Lys][Lys]30[Lys]32 [(α-NH-TDA-Gemcitabine)32 (ε-NHPEG˜1100)32]] |  | 75 | 0.007 | 0.215 | 0.051 | 0.033 |  |  |  | suppression of tumour growth, weekly vs biweekly regimen (FIG. 5) [8]: more effective at suppressing tumour growth than 1, given biweekly at 2 mg/kg
4 | [BHA Lys][Lys]30[Lys]32 [Compound 2, [BHA Lys][Lys]30[Lys]32 [(α-NH-TDA-Gemcitabine)32 (ε-NHPEG570)32]] |  | 94 |  | 0.412 | 0.034 | 0.021 | 0.004 | significantly extended survival beyond that of Gemcitabine | complete stasis | 
5 | [BHA Lys][Lys]30[Lys]32 [Compound 4, [BHA Lys][Lys]30[Lys]32 [(α-NH-DGA-Gemcitabine)32 (ε-NHPEG˜570)32]] |  | 91 | 0.013 | 0.061 | 0.031 | 0.011 | 0.003 | significantly extended survival beyond that of Gemcitabine | complete stasis | 
6 | [BHA Lys][Lys]30[Lys]32 [Compound 5, [BHA Lys][Lys]30[Lys]32 [(α-NH-DGA-Gemcitabine)32 (ε-NHPEG˜1100)32]] |  | 94 |  | 0.046 | 0.044 | 0.003 | 0.003 | significantly extended survival beyond that of Gemcitabine | complete stasis | 
7 | [BHA Lys][Lys]30[Lys]32 [Compound 6, [BHA Lys][Lys]30[Lys]32 [(α-NH-DGA-Gemcitabine)32 (ε-NHPEG˜2100)32]] | 83 |  | 0.001 | 0.056 | 0.045 | 0.006 | 0.005 |  |  | Human Plasma % release ([9]; 0 h): 0.49%; Human Plasma % release ([9]; 2 h): 9.94%; Human Plasma % release ([9]; 4 h): 18.18%; Human Plasma % release ([9]; 6 h): 39.84%; Human Plasma % release ([9]; 24 h): 71.13%; Human Plasma % release ([9]; 30 h): 77.98%
8 | [BHA Lys][Lys]30[Lys]32 [Compound 8, [BHA Lys][Lys]30[Lys]32 [(α-NH-Glu-Gemcitabine)32 (ε-NHPEG˜2100)32]] |  |  |  |  | 0.5 |  | 0.103 |  |  | Human Plasma % release ([9]; 0 h): −0.17%; Human Plasma % release ([9]; 2 h): 0.22%; Human Plasma % release ([9]; 4 h): −1.99%; Human Plasma % release ([9]; 6 h): 3.02%; Human Plasma % release ([9]; 24 h): 6.19%; Human Plasma % release ([9]; 30 h): 5.39%
